Results from PubChem BioAssay (NCI).
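Method: 48-hour compound exposure of cells in 96-well plates, five concentrations, linear interpolation of endpoints. Definition used: TGI = concentration required for complete inhibition of growth.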

Key:
Experiment in all cases: growth of human tumour cells (NCI), 48 h
[1] = test system: 786-0 renal
[2] = test system: A498 renal
[3] = test system: A549 NSCLC
[4] = test system: ACHN renal
[5] = test system: CAKI-1 renal
[6] = test system: CCRF-CEM leukemia
[7] = test system: COLO 205 colon
[8] = test system: DU-145 prostate
[9] = test system: EKVX NSCLC
[10] = test system: HCC-2998 colon
[11] = test system: HCT-116 colon
[12] = test system: HCT-15 colon
[13] = test system: HL-60(TB) leukemia
[14] = test system: HOP-62 NSCLC
[15] = test system: HOP-92 NSCLC
[16] = test system: HS 578T breast
[17] = test system: HT29 colon
[18] = test system: IGROV1 ovarian
[19] = test system: K-562 leukemia
[20] = test system: KM12 colon
[21] = test system: LOX IMVI melanoma
[22] = test system: M14 melanoma
[23] = test system: MALME-3M melanoma
[24] = test system: MCF7 breast
[25] = test system: MDA-MB-231 breast
[26] = test system: MDA-MB-435
[27] = test system: MDA-N
[28] = test system: MOLT-4 leukemia
[29] = test system: NCI-H226 lung
[30] = test system: NCI-H23 lung
[31] = test system: NCI-H460 lung
[32] = test system: NCI-H522 lung
[33] = test system: NCI/ADR-RES ovarian
[34] = test system: OVCAR-3 ovarian
[35] = test system: OVCAR-4 ovarian
[36] = test system: OVCAR-5 ovarian
[37] = test system: OVCAR-8 ovarian
[38] = test system: PC-3 prostate
[39] = test system: RPMI-8226 leukemia
[40] = test system: RXF 393 renal
[41] = test system: SF-268 CNS
[42] = test system: SF-295 CNS
[43] = test system: SF-539 CNS
[44] = test system: SK-MEL-2 melanoma
[45] = test system: SK-MEL-28 melanoma
[46] = test system: SK-MEL-5 melanoma
[47] = test system: SK-OV-3 ovarian
[48] = test system: SN12C renal
[49] = test system: SNB-19 CNS
[50] = test system: SNB-75 CNS
[51] = test system: SR leukemia
[52] = test system: SW-620 colon
[53] = test system: T-47D breast
[54] = test system: TK-10 renal
[55] = test system: U251 CNS
[56] = test system: UACC-257 melanoma
[57] = test system: UACC-62 melanoma
[58] = test system: UO-31 renal
[59] = test system: BT-549 breast

Measured: TGI

N#Cc1nc(-c2ccccc2C(=O)O)oc1N
> 100 µM: [1] | [2] | [3] | [4] | [5] | [6] | [7] | [8] | [9] | [10] | [11] | [12] | [13] | [14] | [15] | [16] | [17] | [18] | [19] | [20] | [21] | [22] | [23] | [24] | [25] | [26] | [27] | [28] | [29] | [30] | [31] | [32] | [33] | [34] | [35] | [36] | [37] | [38] | [39] | [40] | [41] | [42] | [43] | [44] | [45] | [46] | [47] | [48] | [49] | [50] | [51] | [52] | [53] | [54] | [55] | [56] | [57] | [58]

CC(C)Sc1nncc(/C(N)=N/O)n1
> 100 µM: [1] | [2] | [3] | [4] | [59] | [5] | [6] | [7] | [8] | [9] | [10] | [11] | [12] | [14] | [15] | [17] | [18] | [19] | [20] | [21] | [22] | [23] | [24] | [25] | [26] | [27] | [28] | [29] | [30] | [31] | [32] | [33] | [34] | [35] | [36] | [37] | [38] | [39] | [40] | [41] | [42] | [43] | [45] | [46] | [47] | [48] | [49] | [50] | [51] | [52] | [53] | [54] | [55] | [56] | [57] | [58]
